These results are taken from patent publication US20260242739A1, “ROLE OF HEPATOCYTE-DERIVED EXTRACELLULAR MATRIX AND COAGULATION FACTORS FOR THE FATE RESTORATION AND MAINTENANCE OF HUMAN HEPATOCYTES” (UNIVERSITY OF SOUTHERN CALIFORNIA, priority 2023, published 2026).

This assay deals with HLCM-HHs. Type of assay: cell-based, human. The following applies: 7 days. The method, then: As described in our previous publication (Tateno 2015), humanized liver chimeric mice (HLCM) were generated through xenotransplantation of cryopreserved or freshly isolated primary human hepatocytes (Lot:JFC, BioIVT, NY, US) into severe […] immune deficient (SCID) mice carrying a albumin enhancer/promoter-driven transgene (cDNA), urokinase type plasminogen activator, namely cDNA-uPA Tg/SCID). HLCM with blood human albumin level higher than 10 mg/mL were used for human hepatocyte isolation with two-step collagenase perfusion. The freshly isolated HLCM derived human hepatocytes (HLCM-HH) were plated on type I collagen coated culture dishes (BioCoat, Corning, NY, USA) at 1.05×10^5 cells/cm^2. […]
Total RNA was extracted with Zymo-Quick RNA micro kit (Zymo Research, CA, USA) according to the provider's protocol. […] Real-time quantitative PCR was performed with PowerUp SYBR Green Master Mix (ThermoFisher Scientific, MA, USA) and QuantStudio 5 systems (ThermoFisher Scientific) using human specific primer sets summarized in the Table 4. Relative gene expression levels were analyzed with the Delta-Dleta Ct method.

As to Fibrinogen, the “expression of cholangiocyte/liver progenitor cell markers, TGFB2 and ANKRD1” value (INVITROGRO HI (IH) and HCM media with or without fibrinogen 50 μg/mL) is “significantly inhibited”. Moreover, the “expressions of cholangiocyte/liver progenitor cell markers (TGFB1, TGFB2, ANKRD1, KRT19)” value (supplemented to fresh dHCGM at 50 μg/mL, vs dHCGM alone, qPCR) was “significantly inhibited”.
